Source: patent US20260250322A1, “NEW PEPTIDES AS SELECTIVE IL-23 RECEPTOR INHIBITORS” (SANOFI, priority 2023, published 2026)
pIC50: −log10 of the molar value. Bridge positions count the residues as written; N and C are the ends. Square brackets hold non-standard residues; d marks the D form. Peptide text beside a SMILES is read from it. 1Nal = N[C@@H](Cc1cccc2ccccc12)C(=O)O; 2Nal = N[C@@H](Cc1ccc2ccccc2c1)C(=O)O; Cit = NC(=O)NCCC[C@H](N)C(=O)O; Orn = NCCC[C@H](N)C(=O)O; Aib = CC(C)(N)C(=O)O

Tests used:
[1] = Protease stability in simulated intestinal fluids (FaSSIF); type: in vitro ADME; settings: 37° C.; for FaSSIF 0 (min), remaining percentage of peptide compound: 0 min (set to 100%), 1 μM; for remaining at 1 h, 1 μM / remaining at 2 h, 1 μM / remaining at 4 h, 1 μM: simulated intestinal fluid (FaSSIF), protease stability; for remaining at 1 h, 1 μM: 60 min, read-out: FaSSIF 60 (min), remaining percentage of peptide compound; for remaining at 2 h, 1 μM: 120 min, read-out: FaSSIF 120 (min), remaining percentage of peptide compound; for remaining at 4 h, 1 μM: 240 min, read-out: FaSSIF 240 (min), remaining percentage of peptide compound
Protocol: Studies were carried out in simulated intestinal fluid (SIF) and simulated gastric fluid (SGF) to evaluate gastric stability of the peptide compounds of the disclosure. […]
Similarly, the term “Pancreatin-SIF” refers to a solution of simulated intestinal fluid containing pancreatin whereas “SIF-media” refers to a solution of simulated intestinal fluid without pancreatin. Pancreatin-SIF was prepared by dissolving 1 mg Pancreatin (MP Biomedicals) in 10 mL SIF media concentrate (ProSense). […]
To 76 μL of the Pepsin-SGF buffer, 4 μL of the 20 µM compound stock solution were added and incubated at 37° C. At each timepoint (0, 60, 120 and 240 minutes) the reaction was quenched with addition of 80 μL Ethanol (0.1% HCOOH). The samples were centrifuged for 20 minutes and an aliquot of the supernatant 100 μL were transferred to a LoBind-MTP plate and analyzed by LCMS/MS. The peak area response was calculated at each time point for each test compound. As internal reference, the peak area response of the same test compound at TO was calculated. The percent remaining at each timepoint was calculated based on the peak area response ratio of the test compound at TO. Time 0 was set to 100%, and all later timepoints were calculated relative to time 0.

[2] = tested on: IL-23 induced STAT3 signaling; experiment: Inhibition of IL-23 induced STAT3 signaling in HEK-Blue IL-23 cells (SEAP reporter); type: cell-based; settings: human IL-23 0.25 ng/ml, read-out: Inhibition of IL-23 induced pSTAT3 (IC50 nM)
Outline: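 HEK-Blue IL-23 cells (10,000/well) preincubated 60 min at 37 °C with serially diluted compound, then stimulated overnight with human IL-23 (0.25 ng/ml final). STAT3-driven SEAP in supernatant read with QUANTI-Blue after 45 min at room temperature, OD 620-655 nm; dose-response fitted.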

human IL-23R = target: T1, human IL-23R (Homo sapiens, UniProt Q5VWK5); experiment: Human ELISA IL-23/IL-23R binding inhibition; settings: human IL-23 coated, recombinant human IL-23R-Fc chimera
T1 sequence (Q5VWK5 24-355 limits assumed): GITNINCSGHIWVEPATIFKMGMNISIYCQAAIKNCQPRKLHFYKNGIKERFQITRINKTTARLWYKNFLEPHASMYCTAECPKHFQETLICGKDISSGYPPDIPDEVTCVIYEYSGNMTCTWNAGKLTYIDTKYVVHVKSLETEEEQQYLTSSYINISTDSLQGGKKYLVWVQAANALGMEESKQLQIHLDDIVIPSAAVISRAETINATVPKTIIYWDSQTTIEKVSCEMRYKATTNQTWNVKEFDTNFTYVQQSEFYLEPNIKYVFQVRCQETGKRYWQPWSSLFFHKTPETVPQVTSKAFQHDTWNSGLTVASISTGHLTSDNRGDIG
Outline: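 Plates coated with human IL-23 at 1 μg/ml overnight at 4° C; serially diluted peptides added with recombinant human IL-23R-Fc at 0.1 μg/ml final, 60 min at RT. Bound receptor detected with anti-human IgG1-HRP and a fluorogenic peroxidase substrate.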

SMILES	FaSSIF 0 (min), remaining percentage of peptide compound [1] [%]	remaining at 1 h, 1 μM [1] [%]	remaining at 2 h, 1 μM [1] [%]	remaining at 4 h, 1 μM [1] [%]	IC50 [2] [nM]	pIC50 (human IL-23R)
COc1ccc(C[C@@H]2NC(=O)[C@H](CCCNC(=N)N)NC(=O)[C@H](CCC(N)=O)NC(=O)[C@H](Cc3c[nH]c4ccccc34)NC(=O)[C@H]([C@@H](C)O)NC(=O)[C@H](CC(N)=O)NC(=O)[C@H](NC(C)=O)CC(=O)NCCC[C@@H](C(=O)N[C@@H](CC(N)=O)C(=O)N[C@@H](CC(N)=O)C(N)=O)NC(=O)C(C)(C)NC(=O)[C@H](Cc3ccc4ccccc4c3)NC2=O)cc1 [compound 13] (Ac-[dD]NTWQRY(Me)[2Nal][Aib][Orn]NN-NH2; lactam 1-10)	100	2	0	3	1150	8.20
COc1ccc(C[C@@H]2NC(=O)[C@H](CCCNC(=N)N)NC(=O)[C@H](CCC(N)=O)NC(=O)[C@H](Cc3c[nH]c4ccccc34)NC(=O)[C@H]([C@@H](C)O)NC(=O)[C@H](CC(N)=O)NC(=O)[C@H](NC(C)=O)CCCCNC(=O)C[C@@H](C(=O)N[C@@H](CC(N)=O)C(=O)N[C@@H](CC(N)=O)C(N)=O)NC(=O)[C@H](CCCNC(N)=O)NC(=O)[C@H](Cc3cccc4ccccc34)NC2=O)cc1 [compound 18] (Ac-[dK]NTWQRY(Me)[1Nal][Cit]DNN-NH2; lactam 1-10)	100	8	–	11	10000	7.93
COc1ccc(C[C@@H]2NC(=O)C(C)(C)NC(=O)[C@H](CCC(N)=O)NC(=O)[C@H](Cc3c[nH]c4ccccc34)NC(=O)[C@H]([C@@H](C)O)NC(=O)[C@H](CC(N)=O)NC(=O)[C@H](NC(C)=O)CCCCNC(=O)C[C@@H](C(=O)N[C@@H](CC(N)=O)C(=O)N[C@@H](CC(N)=O)C(N)=O)NC(=O)C(C)(C)NC(=O)[C@H](Cc3cccc4ccccc34)NC2=O)cc1 [compound 21] (Ac-[dK]NTWQ[Aib]Y(Me)[1Nal][Aib]DNN-NH2; lactam 1-10)	100	96	98	95	7500	7.77
COc1ccc(C[C@@H]2NC(=O)[C@H](CCCNC(=N)N)NC(=O)[C@H](CCC(N)=O)NC(=O)[C@H](Cc3c[nH]c4ccccc34)NC(=O)[C@H]([C@@H](C)O)NC(=O)[C@H](CC(N)=O)NC(=O)[C@H](NC(C)=O)CCC(=O)NCCCC[C@@H](C(=O)N[C@@H](CC(N)=O)C(=O)N[C@@H](CC(N)=O)C(N)=O)NC(=O)C(C)(C)NC(=O)[C@H](Cc3cccc4ccccc34)NC2=O)cc1 [compound 11] (Ac-[dE]NTWQRY(Me)[1Nal][Aib]KNN-NH2; lactam 1-10)	100	4	7	2	9280	–
